Patent publication US6852673B2, “Herbicidal pyridine compounds” (BASF Aktiengesellschaft, priority 1998, dated 2005)

Key:
Assay type in all cases: in vivo
Hordeum vulgare (HORVW) = assay: Pre-emergence herbicidal evaluation, winter barley
Text: (§1) The pre-emergence herbicidal activity of the compounds of the present invention is exemplified by the following test in which the seeds of a variety of monocotyledonous and dicotyledonous plants are seperately mixed with potting soil and planted on top of approximately one inch of soil in separate pots. After planting, the pots are sprayed with the selected aqueous acetone solution containing test compound in sufficient quantity to provide the equivalent of about 0.0125 to 0.4 kg per hectare of test compound per pot. The treated pots are then placed on greenhouse benches, watered and cared for in accordance with conventional greenhouse procedures. From 2 to 4 weeks after treatment, the tests are terminated and each pot is examined and rated according to the rating system set forth below.

[1] = tested on: Triticum aestivum (TRZAW); assay: Pre-emergence herbicidal evaluation, winter wheat
Text: as §1

[2] = tested on: Abutilon theophrasti (ABUTH); assay: Pre-emergence herbicidal evaluation, velvetleaf
Text: as §1

[3] = tested on: Ipomoea hederacea (IPOHE); assay: Pre-emergence herbicidal evaluation, morning glory
Text: as §1

Lamium purpureum (LAMPU) = assay: Pre-emergence herbicidal evaluation, purple deadnettle
Text: as §1

[4] = tested on: Matricaria inodora (MATIN); assay: Pre-emergence herbicidal evaluation, mayweed
Text: as §1

Solanum nigrum (SOLNI) = assay: Pre-emergence herbicidal evaluation, black nightshade
Text: as §1

Stellaria media (STEME) = assay: Pre-emergence herbicidal evaluation, chickweed
Text: as §1

[5] = tested on: Alopecurus myosuroides (ALOMY); assay: Pre-emergence herbicidal evaluation, black grass
Text: as §1

[6] = tested on: Digitaria sanguinalis (DIGSA); assay: Pre-emergence herbicidal evaluation, large crabgrass
Text: as §1

Setaria viridis (SETVI) = assay: Pre-emergence herbicidal evaluation, green foxtail
Text: as §1

Galium aparine (GALAP) = assay: Pre-emergence herbicidal evaluation, cleaver
Text: as §1

Structure (SMILES)	HORVW rating (Hordeum vulgare (HORVW); dose 0.025 kg/ha)	HORVW rating (Hordeum vulgare (HORVW); dose 0.1 kg/ha)	HORVW rating (Hordeum vulgare (HORVW); dose 0.4 kg/ha)	TRZAW rating ([1]; dose 0.025 kg/ha)	TRZAW rating ([1]; dose 0.1 kg/ha)	TRZAW rating ([1]; dose 0.4 kg/ha)	ABUTH rating ([2]; dose 0.025 kg/ha)	ABUTH rating ([2]; dose 0.1 kg/ha)	ABUTH rating ([2]; dose 0.4 kg/ha)	IPOHE rating ([3]; dose 0.025 kg/ha)	IPOHE rating ([3]; dose 0.1 kg/ha)	IPOHE rating ([3]; dose 0.4 kg/ha)	LAMPU rating (Lamium purpureum (LAMPU); dose 0.025 kg/ha)	LAMPU rating (Lamium purpureum (LAMPU); dose 0.1 kg/ha)	LAMPU rating (Lamium purpureum (LAMPU); dose 0.4 kg/ha)	MATIN rating ([4]; dose 0.025 kg/ha)	MATIN rating ([4]; dose 0.1 kg/ha)	MATIN rating ([4]; dose 0.4 kg/ha)	STEME rating (Stellaria media (STEME); dose 0.025 kg/ha)	STEME rating (Stellaria media (STEME); dose 0.1 kg/ha)	further results
CC(Cl)=CCOc1cc(C#N)cc(Oc2csc(C(F)(F)F)c2)n1 [Example 28]	0 (0 - No effect)	1 (1 - Trace effect)	3 (3 - Moderate effect)	0 (0 - No effect)	0 (0 - No effect)	1 (1 - Trace effect)	5 (5 - Definite injury)	7 (7 - Good herbicidal effect)	8 (8 - Approaching complete kill)	0 (0 - No effect)	0 (0 - No effect)	1 (1 - Trace effect)	5 (5 - Definite injury)	8 (8 - Approaching complete kill)	8 (8 - Approaching complete kill)	9 (9 - Complete kill)	9 (9 - Complete kill)	9 (9 - Complete kill)	9 (9 - Complete kill)	9 (9 - Complete kill)	SOLNI rating (Solanum nigrum (SOLNI); dose 0.025 kg/ha): 4 (4 - Injury); SOLNI rating (Solanum nigrum (SOLNI); dose 0.1 kg/ha): 8 (8 - Approaching complete kill); SOLNI rating (Solanum nigrum (SOLNI); dose 0.4 kg/ha): 8 (8 - Approaching complete kill); STEME rating (Stellaria media (STEME); dose 0.4 kg/ha): 9 (9 - Complete kill); ALOMY rating ([5]; dose 0.025 kg/ha): 3 (3 - Moderate effect); ALOMY rating ([5]; dose 0.1 kg/ha): 8 (8 - Approaching complete kill); ALOMY rating ([5]; dose 0.4 kg/ha): 9 (9 - Complete kill); DIGSA rating ([6]; dose 0.025 kg/ha): 3 (3 - Moderate effect); DIGSA rating ([6]; dose 0.1 kg/ha): 9 (9 - Complete kill); DIGSA rating ([6]; dose 0.4 kg/ha): 9 (9 - Complete kill)
CC(Cl)=CCOc1nc(Oc2cc(C(F)(F)F)nn2C)c(F)c(C)c1F [Example 35]	–	–	–	–	–	–	–	–	–	–	–	–	–	–	–	–	–	–	–	–	TRZAW rating ([1]; dose 0.04 kg/ha): 1 (1 - Trace effect); TRZAW rating ([1]; dose 0.06 kg/ha): 3 (3 - Moderate effect); TRZAW rating ([1]; dose 0.12 kg/ha): 3 (3 - Moderate effect); MATIN rating ([4]; dose 0.04 kg/ha): 9 (9 - Complete kill); MATIN rating ([4]; dose 0.06 kg/ha): 9 (9 - Complete kill); MATIN rating ([4]; dose 0.12 kg/ha): 9 (9 - Complete kill); STEME rating (Stellaria media (STEME); dose 0.04 kg/ha): 8 (8 - Approaching complete kill); STEME rating (Stellaria media (STEME); dose 0.06 kg/ha): 9 (9 - Complete kill); STEME rating (Stellaria media (STEME); dose 0.12 kg/ha): 9 (9 - Complete kill); ALOMY rating ([5]; dose 0.04 kg/ha): 9 (9 - Complete kill); ALOMY rating ([5]; dose 0.06 kg/ha): 9 (9 - Complete kill); ALOMY rating ([5]; dose 0.12 kg/ha): 9 (9 - Complete kill); SETVI rating (Setaria viridis (SETVI); dose 0.04 kg/ha): 8 (8 - Approaching complete kill); SETVI rating (Setaria viridis (SETVI); dose 0.06 kg/ha): 9 (9 - Complete kill); SETVI rating (Setaria viridis (SETVI); dose 0.12 kg/ha): 9 (9 - Complete kill)
C=C(Cl)COc1cc(C)cc(Oc2cc(C(F)(F)F)nn2C)n1 [Example 36]	2 (2 - Slight effect)	3 (3 - Moderate effect)	5 (5 - Definite injury)	0 (0 - No effect)	2 (2 - Slight effect)	2 (2 - Slight effect)	5 (5 - Definite injury)	5 (5 - Definite injury)	8 (8 - Approaching complete kill)	2 (2 - Slight effect)	3 (3 - Moderate effect)	9 (9 - Complete kill)	7 (7 - Good herbicidal effect)	8 (8 - Approaching complete kill)	9 (9 - Complete kill)	7 (7 - Good herbicidal effect)	9 (9 - Complete kill)	9 (9 - Complete kill)	5 (5 - Definite injury)	9 (9 - Complete kill)	GALAP rating (Galium aparine (GALAP); dose 0.025 kg/ha): 0 (0 - No effect); GALAP rating (Galium aparine (GALAP); dose 0.1 kg/ha): 3 (3 - Moderate effect); GALAP rating (Galium aparine (GALAP); dose 0.4 kg/ha): 8 (8 - Approaching complete kill); STEME rating (Stellaria media (STEME); dose 0.4 kg/ha): 9 (9 - Complete kill); ALOMY rating ([5]; dose 0.025 kg/ha): 4 (4 - Injury); ALOMY rating ([5]; dose 0.1 kg/ha): 8 (8 - Approaching complete kill); ALOMY rating ([5]; dose 0.4 kg/ha): 9 (9 - Complete kill); DIGSA rating ([6]; dose 0.025 kg/ha): 8 (8 - Approaching complete kill); DIGSA rating ([6]; dose 0.1 kg/ha): 9 (9 - Complete kill); DIGSA rating ([6]; dose 0.4 kg/ha): 9 (9 - Complete kill); SETVI rating (Setaria viridis (SETVI); dose 0.025 kg/ha): 9 (9 - Complete kill); SETVI rating (Setaria viridis (SETVI); dose 0.1 kg/ha): 9 (9 - Complete kill); SETVI rating (Setaria viridis (SETVI); dose 0.4 kg/ha): 9 (9 - Complete kill)
